This passage reports Ki results from US7741341B2, “Benzimidazole-derivatives as factor Xa inhibitors” (sanofi-aventis Deutschland GmbH, priority 2003, dated 2010).

pKi: −log10 of the molar value.

In this experiment the target is T1, human factor Xa (Homo sapiens, UniProt P00742).
T1 construct: human factor Xa (Enzyme Research Laboratories, Inc; South Bend, Ind.); purchased Enzyme Research Laboratories, Inc; South Bend, Ind
T1 sequence (P00742 235-488 limits assumed): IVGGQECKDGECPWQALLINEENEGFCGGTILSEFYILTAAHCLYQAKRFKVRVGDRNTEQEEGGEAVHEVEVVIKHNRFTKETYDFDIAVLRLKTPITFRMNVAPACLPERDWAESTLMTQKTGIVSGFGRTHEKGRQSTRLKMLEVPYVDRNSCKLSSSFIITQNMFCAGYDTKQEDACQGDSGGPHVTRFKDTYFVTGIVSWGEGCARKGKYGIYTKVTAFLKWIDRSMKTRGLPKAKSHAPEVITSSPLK
T1 sequence (P00742 41-179 partner limits assumed): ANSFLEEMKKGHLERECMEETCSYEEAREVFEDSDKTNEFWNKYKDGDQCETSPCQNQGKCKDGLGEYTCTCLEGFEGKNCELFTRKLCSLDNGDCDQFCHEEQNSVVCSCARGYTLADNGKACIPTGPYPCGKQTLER
Description: Factor Xa assay (chromogenic, substrate S-2765). In kind it is biochemical. Particulars: read-out: Ki(FXa). As to the method:
Purified enzymes were used in chromogenic assays.
The IC50 was determined by combining in appropriate wells of a Costar half-area microtiter plate 25 μl human factor Xa (Enzyme Research Laboratories, Inc.; South Bend, Ind.) in TBS-PEG; 40 μl 10% (v/v) DMSO in TBS-PEG (uninhibited control) or various concentrations of the compound to be tested diluted in 10% (v/v) DMSO in TBS-PEG; and substrate S-2765 (N(α)-benzyloxycarbonyl-D-Arg-Gly-L-Arg-p-nitroanilide; Kabi Pharmacia, Inc.; Franklin, Ohio) in TBS-PEG.
The assay was performed by pre-incubating the compound of formula I plus enzyme for 10 min. Then the assay was initiated by adding substrate to obtain a final volume of 100 μl. […] The enzyme concentration was 0.5 nM and substrate concentration was 140 μM.
As to `O=C(Cn1c(C(=O)Nc2ccc(N3CCOCC3=O)cc2)nc2ccccc21)Nc1ccc(Cl)cn1` [Example 35, 1-[(5-Chloro-pyridin-2-ylcarbamoyl)-methyl]-1H-benzoimidazole-2-carboxylic acid [4-(3-oxo-morpholin-4-yl)-phenyl]-amide], the negative logarithm of the Ki (pKi) is 7.39. As to `CC(C)N1CCC(NC(=O)c2nc3c(C(=O)N4C(C)CCCC4C)cccc3n2CC(=O)Nc2ccc(Cl)cn2)CC1` (centres unmarked) [Example 75, 1-[(5-Chloro-pyridin-2-ylcarbamoyl)-methyl]-4-(2,6-dimethyl-piperidine-1-carbonyl)-1H-benzoimidazole-2-carboxylic acid (1-isopropyl-piperidin-4-yl)-amide], the pKi is 8.59.

On to `COC(=O)c1ccc2nc(C(=O)NC3CCN(C(C)C)CC3)n(Cc3cc(-c4ccc(Cl)s4)on3)c2c1` [Example 5b, 3-[5-(5-Chloro-thiophen-2-yl)-isoxazol-3-ylmethyl]-2-(1-isopropyl-piperidin-4-ylcarbamoyl)-3H-benzoimidazole-5-carboxylic acid methyl ester], for which the pKi was 6.76.

`CC(C)N1CCC(NC(=O)c2nc3c(C(=O)OCC4CC4)cccc3n2CC(=O)Nc2ccc(Cl)cn2)CC1` [Example 69, 1-[(5-Chloro-pyridin-2-ylcarbamoyl)-methyl]-2-(1-isopropyl-piperidin-4-ylcarbamoyl)-1H-benzoimidazole-4-carboxylic acid cyclopropylmethyl ester]: the pKi was 7.82. Under `COCCOCc1cccc2c1nc(C(=O)NC1CCN(C(C)C)CC1)n2CC(=O)Nc1ccc(Cl)cn1` [Example 72, 1-[(5-Chloro-pyridin-2-ylcarbamoyl)-methyl]-4-(2-methoxy-ethoxymethyl)-1H-benzoimidazole-2-carboxylic acid (1-isopropyl-piperidin-4-yl)-amide] stands 7.90. Consider `CC(C)N1CCC(NC(=O)c2nc3cc(C(=O)O)ccc3n2Cc2cc(-c3ccc(Cl)s3)on2)CC1` [Example 6, 1-[5-(5-Chloro-thiophen-2-yl)-isoxazol-3-ylmethyl]-2-(1-isopropyl-piperidin-4-ylcarbamoyl)-1H-benzoimidazole-5-carboxylic acid], for which the pKi was 8.52. On to `CC(C)N1CCC(NC(=O)c2nc3c(C(=O)OCC(=O)O)cccc3n2Cc2cc(-c3ccc(Cl)s3)on2)CC1` [Example 66, 1-[5-(5-Chloro-thiophen-2-yl)-isoxazol-3-ylmethyl]-2-(1-isopropyl-piperidin-4-ylcarbamoyl)-1H-benzoimidazole-4-carboxylic acid carboxymethyl ester], for which the pKi was 8.52. To `CC(OC(=O)OC1CCCCC1)OC(=O)c1cccc2c1nc(C(=O)NC1CCN(C(C)C)CC1)n2Cc1cc(-c2ccc(Cl)s2)on1` (centres unmarked) [Example 21, 1-[5-(5-Chloro-thiophen-2-yl)-isoxazol-3-ylmethyl]-2-(1-isopropyl-piperidin-4-ylcarbamoyl)-1H-benzoimidazole-4-carboxylic acid 1-cyclohexyloxycarbonyloxy-ethyl ester] belongs 7.51; to `O=C(Cn1c(C(=O)Nc2ccc(N3CCOC3=O)cc2)nc2ccccc21)Nc1ccc(Cl)cn1` [Example 43, 1-[(5-Chloro-pyridin-2-ylcarbamoyl)-methyl]-1H-benzoimidazole-2-carboxylic acid [4-(2-oxo-oxazolidin-3-yl)-phenyl]-amide], 6.08. Under `O=C(Cn1c(C(=O)Nc2ccc(N3CCOCC3=O)cc2)nc2c(C(=O)O)cccc21)Nc1ccc(Cl)cn1` [Example 53, 1-[(5-Chloro-pyridin-2-ylcarbamoyl)-methyl]-2-[4-(3-oxo-morpholin-4-yl)-phenylcarbamoyl]-1H-benzoimidazole-4-carboxylic acid] stands 7.40. For `O=C(Nc1ccc(N2CCOC2=O)cc1)c1nc2ccccc2n1Cc1cc(-c2ccc(Cl)s2)on1` [Example 42, 1-[5-(5-Chloro-thiophen-2-yl)-isoxazol-3-ylmethyl]-1H-benzoimidazole-2-carboxylic acid [4-(2-oxo-oxazolidin-3-yl)-phenyl]-amide], the negative logarithm of the Ki (pKi) is 6.34. To `COC(=O)c1ccc2nc(C(=O)NC3CCN(C(C)C)CC3)n(CC(=O)Nc3ccc(Cl)cn3)c2c1` [Example 17b, 3-[(5-Chloro-pyridin-2-ylcarbamoyl)-methyl]-2-(1-isopropyl-piperidin-4-ylcarbamoyl)-3H-benzoimidazole-5-carboxylic acid methyl ester] belongs 6.43; to `CC(C)N1CCC(NC(=O)c2nc3c(C(=O)O)cccc3n2Cc2cc(-c3ccc(Cl)s3)on2)CC1` [Example 12, 1-[5-(5-Chloro-thiophen-2-yl)-isoxazol-3-ylmethyl]-2-(1-isopropyl-piperidin-4-ylcarbamoyl)-1H-benzoimidazole-4-carboxylic acid], 8.52; to `CC(C)N1CCC(NC(=O)c2nc3c(CO)cccc3n2CC(=O)Nc2ccc(Cl)cn2)CC1` [Example 71, 1-[(5-Chloro-pyridin-2-ylcarbamoyl)-methyl]-4-hydroxymethyl-1H-benzoimidazole-2-carboxylic acid (1-isopropyl-piperidin-4-yl)-amide], 8.15. Under `CC(C)N1CCC(NC(=O)c2nc3c(C(=O)N4CCCOCC4)cccc3n2CC(=O)Nc2ccc(Cl)cn2)CC1` [Example 74, 1-[(5-Chloro-pyridin-2-ylcarbamoyl)-methyl]-4-([1,4]oxazepane-4-carbonyl)-1H-benzoimidazole-2-carboxylic acid (1-isopropyl-piperidin-4-yl)-amide] stands 7.98; under `CC(C)N1CCC(NC(=O)c2nc3c(OCCO)cccc3n2CC(=O)Nc2ccc(Cl)cn2)CC1` [Example 110, 1-[(5-Chloro-pyridin-2-ylcarbamoyl)-methyl]-4-(2-hydroxy-ethoxy)-1H-benzoimidazole-2-carboxylic acid (1-isopropyl-piperidin-4-yl)-amide], 8.40; under `COC(=O)c1cccc2c1nc(C(=O)Nc1ccc(N3CCOCC3=O)cc1)n2CC(=O)Nc1ccc(Cl)cn1` [Example 36, 1-[(5-Chloro-pyridin-2-ylcarbamoyl)-methyl]-2-[4-(3-oxo-morpholin-4-yl)-phenylcarbamoyl]-1H-benzoimidazole-4-carboxylic acid methyl ester], 7.50.

As to `CC(C)N1CCC(NC(=O)c2nc3c(C(=O)OCCO)cccc3n2Cc2cc(-c3ccc(Cl)s3)on2)CC1` [Example 64, 1-[5-(5-Chloro-thiophen-2-yl)-isoxazol-3-ylmethyl]-2-(1-isopropyl-piperidin-4-ylcarbamoyl)-1H-benzoimidazole-4-carboxylic acid 2-hydroxy-ethyl ester], the negative logarithm of the Ki (pKi) is 8.70. For the molecule `CC(C)N1CCC(NC(=O)c2nc3cc(C(=O)N(C)CCO)ccc3n2Cc2cc(-c3ccc(Cl)s3)on2)CC1` [Example 25, 1-[5-(5-Chloro-thiophen-2-yl)-isoxazol-3-ylmethyl]-1H-benzoimidazole-2,5-dicarboxylic acid 5-[(2-hydroxy-ethyl)-methyl-amide] 2-[(1-isopropyl-piperidin-4-yl)-amide]], the pKi was 7.19. `CC(C)N1CCC(NC(=O)c2nc3c(C(=O)N(C)CCO)cccc3n2CC(=O)Nc2ccc(Cl)cn2)CC1` [Example 31, 1-[(5-Chloro-pyridin-2-ylcarbamoyl)-methyl]-1H-benzoimidazole-2,4-dicarboxylic acid 4-[(2-hydroxy-ethyl)-methyl-amide] 2-[(1-isopropyl-piperidin-4-yl)-amide]]: the pKi is 7.81. Consider `CC(C)N1CCC(NC(=O)c2nc3cc(C(=O)N4CCCOCC4)ccc3n2CC(=O)Nc2ccc(Cl)cn2)CC1` [Example 77, 1-[(5-Chloro-pyridin-2-ylcarbamoyl)-methyl]-5-([1,4]oxazepane-4-carbonyl)-1H-benzoimidazole-2-carboxylic acid (1-isopropyl-piperidin-4-yl)-amide], for which the pKi is 7.28. As for `O=C(Nc1ccc(N2CCNCC2=O)cc1)c1nc2ccccc2n1Cc1cc(-c2ccc(Cl)s2)on1` [Example 50, 1-[5-(5-Chloro-thiophen-2-yl)-isoxazol-3-ylmethyl]-1H-benzoimidazole-2-carboxylic acid [4-(2-oxo-piperazin-1-yl)-phenyl]-amide], the negative-log Ki (pKi) is 6.85.

With `CC(C)N1CCC(NC(=O)c2nc3cc(C(=O)O)ccc3n2Cc2cnc(-c3ccc(Cl)s3)s2)CC1` [Example 9, 1-[2-(5-Chloro-thiophen-2-yl)-thiazol-5-ylmethyl]-2-(1-isopropyl-piperidin-4-ylcarbamoyl)-1H-benzoimidazole-5-carboxylic acid], the negative logarithm of the Ki (pKi) is 7.03. For the molecule `CC(C)N1CCC(NC(=O)c2nc3c(C(=O)N4CCOCC4)cccc3n2CC(=O)Nc2ccc(Cl)cn2)CC1` [Example 73, 1-[(5-Chloro-pyridin-2-ylcarbamoyl)-methyl]-4-(morpholine-4-carbonyl)-1H-benzoimidazole-2-carboxylic acid (1-isopropyl-piperidin-4-yl)-amide], the negative logarithm of the Ki (pKi) is 7.72.

In the case of `CCOC(=O)OC(C)OC(=O)c1ccc2c(c1)nc(C(=O)NC1CCN(C(C)C)CC1)n2CC(=O)Nc1ccc(Cl)cn1` (centres unmarked) [Example 62, 1-[(5-Chloro-pyridin-2-ylcarbamoyl)-methyl]-2-(1-isopropyl-piperidin-4-ylcarbamoyl)-1H-benzoimidazole-5-carboxylic acid 1-ethoxycarbonyloxy-ethyl ester], the pKi was 7.72. Under `CC(C)N1CCC(NC(=O)c2nc3ccc(S(=O)(=O)CCO)cc3n2Cc2cc(-c3ccc(Cl)s3)on2)CC1` [Example 29b, 1-[5-(5-Chloro-thiophen-2-yl)-isoxazol-3-ylmethyl]-6-(2-hydroxy-ethanesulfonyl)-1H-benzoimidazole-2-carboxylic acid (1-isopropyl-piperidin-4-yl)-amide] stands 7.94.
